Laboratory results reported in paper PMC10254233, “Synthesis and In Vitro Biological Evaluation of p-Carborane-Based Di-tert-butylphenol Analogs” (Molecules, 2023).

What was measured:
[1] = system: A375 melanoma; experiment: Cell viability, MTT assay, A375; assay type: cell-based, human; settings: 72 h, mean ± SD
Procedure: (§1) Five human cell lines (A375 melanoma, A549 lung adenocarcinoma, HCT116 and HT29 colorectal carcinoma, MDA-MB-231 triple-negative breast adenocarcinoma) were used to study the antitumor effects of the di-tert-butylphenols and their respective carborane analogs. All selected cell lines were derived from inflammation-associated tumors.
(§2) After the incubation period, the supernatant was discarded from the wells, and the cells were washed two times with 200 µL of PBS. Next, MTT solution at a final concentration of 0.5 mg/mL was added and incubated at 37 °C until purple formazan crystals were formed (30 min to one hour). After incubation, the dye was discarded. In order to dissolve the formed formazan crystals DMSO was added, and the absorbance was measured at λmax = 540 nm, with the reference/background wavelength of 670 nm. All results are expressed as a percentage of the control value which was arbitrary set to 100%. After 72 h treatment, cells were washed with 200 µL of PBS and fixed with 4% paraformaldehyde (PFA) for 15 min at room temperature (RT). Next, cells were stained with 1% CV solution. After 20 min, cells were washed in tap water and dried on air. Dye was dissolved in 33% acetic acid and the absorbance was measured at λmax = 540 nm, with the reference/background wavelength of 670 nm. Results were expressed as a percentage of the control value which was arbitrary set to 100%.
(§3) 1. General methods, materials, and procedures
(§4) 1.1.1. Reagents and cells
(§5) Reagents and cells were obtained from following manufacturers: Capricorn Scientific GmbH (Hessen, Germany) – Culture medium RPMI-1640, Dulbecco's Modified Eagle Medium (DMEM), and fetal bovine serum (FBS). Serva (Heidelberg, Germany) – Paraformaldehyde (PFA). Sigma (St. Louis, MO, USA) – Ethylenediaminetetraacetic acid (EDTA), Dimethyl sulfoxide (DMSO), chloroquine, CV, Triton X-100, RNase, PI, PBS, 3-MA, CFSE, and fluorescent mounting medium. AppliChem (MO, USA) –MTT. Thermo Fisher Scientific (Waltham, MA, USA) – DHR. R&D Systems (Minneapolis, MN, USA) – ApoStat. BD (Pharmingen, San Diego, SAD) – Annexin V-FITC (AnnV). Biological Industries (Cromwell, CT, USA) – Penicillin Streptomycin solution. American Type Culture Collection (ATCC, Manassas, Virginia, USA) – Human lung carcinoma (A549), human breast adenocarcinoma (MDA-MB-231), human colorectal ade-nocarcinoma (HT-29), human colorectal carcinoma (HCT116) and human melanoma (A375).
(§6) Cell lines (A375, HCT116, HT-29 and MDA-MB-231) were cultivated in HEPES-buffered RPMI-1640 medium while A549 cell line was cultivated in Dulbecco's Modified Eagle Medium (DMEM) which were previously supplemented with 10% heat-inactivated FBS, penicillin (100 units/mL), and streptomycin (100 μg/mL). All cells were kept at 37 °C in a humidified atmosphere with 5% CO2. For viability determi-nation cells were seeded at following densities in 96-well plates: 4 x 10^3 cells/well (A375, HT-29 and MDA-MB-231), 5 x 10^3 cells/well (HCT116), and 3 x 10^3 cells/well (A549). […]
Afterwards, cells were washed with phosphate-buffered saline (PBS) and stained with AnnV (15 μg/mL) and PI (15 μg/mL). […]
PBS and analyzed using flow cytometry. HCT116 cells were stained with 1 µg/mL of AO solution for 15 min at 37 °C to detect the presence of autophagic cell death. Afterwards cells were washed with PBS, resuspended and analyzed by flow cytometry (CyFlow® Space Partec using the PartecFloMax® software

[2] = system: A549 lung adenocarcinoma; experiment: Cell viability, MTT assay, A549; assay type: cell-based, human; settings: 72 h, mean ± SD
Procedure: as §1, §2, §3, §4, §5, §6
(§7) Afterwards, cells were washed with phosphate-buffered saline (PBS) and stained with AnnV (15 μg/mL) and PI (15 μg/mL). After 15 min incubation at room temperature (RT) protected from light the cells were resuspended in AnnV-binding buffer and analysed using flow cytom-etry. HCT116 cells were incubated with pan-caspase inhibitor Apostat for 30 min at 37 °C to determine whether detected apoptosis was mediated by caspase activation. Afterwards, cells were washed with PBS and analyzed using flow cytometry. HCT116 cells were stained with 1 µg/mL of AO solution for 15 min at 37 °C to detect the presence of autophagic cell death. Afterwards cells were washed with PBS, resuspended and analyzed by flow cytometry (CyFlow® Space Partec using the PartecFloMax® software

[3] = system: HT-29 colorectal carcinoma; experiment: Cell viability, MTT assay, HT-29; assay type: cell-based, human; settings: 72 h, mean ± SD
Procedure: as §1, §2, §3, §4, §5, §6, §7

[4] = target: T1, 5-LO (Homo sapiens, UniProt P09917); experiment: 5-LO product formation in intact PMNL; settings: read-out: IC50 inhibition of 5-LO product formation in intact PMNL; intact PMNL, A23187 + arachidonic acid, mean of at least three experiments
T1 sequence (P09917 1-674): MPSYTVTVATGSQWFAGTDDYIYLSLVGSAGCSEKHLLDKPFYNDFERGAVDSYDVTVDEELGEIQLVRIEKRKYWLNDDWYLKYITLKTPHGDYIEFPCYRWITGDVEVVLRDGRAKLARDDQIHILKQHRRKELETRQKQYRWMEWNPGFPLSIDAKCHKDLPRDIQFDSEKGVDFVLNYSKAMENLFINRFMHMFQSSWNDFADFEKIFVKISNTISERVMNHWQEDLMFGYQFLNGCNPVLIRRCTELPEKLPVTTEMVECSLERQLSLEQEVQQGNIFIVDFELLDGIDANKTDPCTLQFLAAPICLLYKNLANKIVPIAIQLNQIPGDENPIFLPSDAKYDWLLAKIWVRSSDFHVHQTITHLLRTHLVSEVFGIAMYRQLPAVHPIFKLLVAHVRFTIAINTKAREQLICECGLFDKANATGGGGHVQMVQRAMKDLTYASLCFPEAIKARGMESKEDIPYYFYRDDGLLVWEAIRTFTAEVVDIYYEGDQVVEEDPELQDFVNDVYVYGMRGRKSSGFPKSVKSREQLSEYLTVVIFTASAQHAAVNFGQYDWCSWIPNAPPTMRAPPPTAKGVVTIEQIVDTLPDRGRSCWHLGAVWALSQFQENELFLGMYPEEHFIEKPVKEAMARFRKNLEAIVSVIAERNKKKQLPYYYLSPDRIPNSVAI
Procedure: After 10 min at 37 °C, the reaction was stopped by addition of ice-cold methanol (1 mL). HCl (30 μL, 1 M), prostaglandin B1 (200 ng) and PBS (500 μL) were added and the formed metabolites were extracted and analyzed by HPLC as described previously [96].

| Substance | IC50 [1] | IC50 [2] | IC50 [3] | IC50 [4] |
| --- | --- | --- | --- | --- |
| 1-Hydroxy-12-(thiophen-2′-carbonyl)-1,12-dicarba-closo-dodecaborane(12) [Compound R-830-Cb] | 35.9 ± 0.8 µM | 66.5 ± 1.7 µM | 65.6 ± 5.3 µM | 0.65 µM |
| (3E)-1-Hydroxy-12-(methylene-[2′-ethylisothiazolidine-1′,1′-dioxide])-1,12-dicarba-closo-dodecaborane(12) [Compound S-2474-Cb] | 106 ± 6.3 µM | 122 ± 10.4 µM | 81.8 ± 6.1 µM | < 0.03 µM |
| (3E)-1-Hydroxy-12-(methylene-[1′-methoxypyrrolidine-2′-one])-1,12-dicarba-closo-dodecaborane(12) [Compound E-5110-Cb] | 69.3 ± 1.7 µM | 177 ± 14.5 µM | 120 ± 9.7 µM | 0.22 µM |
| (3E)-1-Hydroxy-12-(methylene-[dihydrofurane-2′(3H)-one])-1,12-dicarba-closo-dodecaborane(12) [KME-4-Cb] | 83.3 ± 2.3 µM | 120 ± 7 µM | 139 ± 5.4 µM | 0.07 µM |
